In data set [1] the target is T1, Metabotropic glutamate receptor 4 (Homo sapiens, UniProt Q14833). Briefly: Positive allosteric modulator activity at human mGlu4 receptor/Gqi5 in presence of EC20 glutamate by calcium mobilization assay. Format: functional. For orientation: Calcium flux is commonly read through the fluorescence of an indicator in the cells.
The target in data set [2] is T1, Metabotropic glutamate receptor 4. Put plainly: Positive allosteric modulator activity at human mGlu4 receptor/Gqi5 assessed as maximum activity at 30 uM by calcium mobilization assay relative to glutamic acid. Conditions: filed as positive allosteric modulator. In kind it is functional.
Data set [3] in a line: Half life in rat. In kind it is ADME. Conditions: in vivo.
In data set [4] the test system is Rattus norvegicus. Put plainly: Reversal of haloperidol-induced catalepsy in rat assessed as reduction in catalepsy at 3 mg/kg, po dosed along with 1.5 mg/kg haloperidol relative to untreated control. In kind it is functional. Also on record: scale not given: the % may be the effect or the level left.
Data set [5] in a line: Brain to plasma partition coefficient, Kp of the compound in Sprague-Dawley rat at 0.20 to 0.25 mg/kg, iv cassette dose measured at 0.25 hrs. Format: ADME, organism-based. Conditions: dose 0.20-0.25 mg/kg.
Another data set has as its target T2, Cytochrome P450 1A2 (Homo sapiens, UniProt P05177).
T2 sequence (P05177 whole entry): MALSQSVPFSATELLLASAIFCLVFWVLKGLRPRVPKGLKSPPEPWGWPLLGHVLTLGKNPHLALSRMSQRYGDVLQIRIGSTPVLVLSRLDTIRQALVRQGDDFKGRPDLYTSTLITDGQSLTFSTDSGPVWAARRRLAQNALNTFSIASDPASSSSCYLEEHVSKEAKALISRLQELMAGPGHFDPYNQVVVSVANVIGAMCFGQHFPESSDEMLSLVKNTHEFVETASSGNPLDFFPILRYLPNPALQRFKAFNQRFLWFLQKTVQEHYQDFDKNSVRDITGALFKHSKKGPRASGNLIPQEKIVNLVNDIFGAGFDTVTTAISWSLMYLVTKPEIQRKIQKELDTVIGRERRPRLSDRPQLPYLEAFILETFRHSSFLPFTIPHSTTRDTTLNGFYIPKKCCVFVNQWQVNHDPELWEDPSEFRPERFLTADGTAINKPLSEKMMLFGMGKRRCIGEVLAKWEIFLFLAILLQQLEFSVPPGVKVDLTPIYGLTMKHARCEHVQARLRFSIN
Put plainly: Inhibition of CYP1A2 (unknown origin). In kind it is ADME.

The target in a further data set is Cytochrome P450 2C9 (Homo sapiens, UniProt P11712). Briefly: Inhibition of CYP2C9 (unknown origin). In kind it is ADME.
Cytochrome P450 2C9, sequence (P11712 whole entry): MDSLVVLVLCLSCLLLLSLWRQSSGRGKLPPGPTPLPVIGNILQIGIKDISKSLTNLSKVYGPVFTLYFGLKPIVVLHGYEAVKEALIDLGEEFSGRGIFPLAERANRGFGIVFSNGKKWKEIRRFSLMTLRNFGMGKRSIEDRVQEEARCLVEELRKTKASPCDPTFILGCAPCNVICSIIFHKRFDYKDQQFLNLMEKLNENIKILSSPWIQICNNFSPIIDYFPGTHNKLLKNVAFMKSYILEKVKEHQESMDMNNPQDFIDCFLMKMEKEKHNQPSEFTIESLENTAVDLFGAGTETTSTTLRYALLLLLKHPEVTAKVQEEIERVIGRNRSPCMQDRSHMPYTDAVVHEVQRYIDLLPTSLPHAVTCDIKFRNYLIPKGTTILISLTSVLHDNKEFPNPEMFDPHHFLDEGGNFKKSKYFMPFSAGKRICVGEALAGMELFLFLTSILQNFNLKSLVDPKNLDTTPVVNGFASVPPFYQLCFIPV
In another data set the target is Cytochrome P450 3A4 (Homo sapiens, UniProt P08684). Briefly: Inhibition of CYP3A4 (unknown origin). Format: ADME.
Cytochrome P450 3A4, sequence (P08684 whole entry): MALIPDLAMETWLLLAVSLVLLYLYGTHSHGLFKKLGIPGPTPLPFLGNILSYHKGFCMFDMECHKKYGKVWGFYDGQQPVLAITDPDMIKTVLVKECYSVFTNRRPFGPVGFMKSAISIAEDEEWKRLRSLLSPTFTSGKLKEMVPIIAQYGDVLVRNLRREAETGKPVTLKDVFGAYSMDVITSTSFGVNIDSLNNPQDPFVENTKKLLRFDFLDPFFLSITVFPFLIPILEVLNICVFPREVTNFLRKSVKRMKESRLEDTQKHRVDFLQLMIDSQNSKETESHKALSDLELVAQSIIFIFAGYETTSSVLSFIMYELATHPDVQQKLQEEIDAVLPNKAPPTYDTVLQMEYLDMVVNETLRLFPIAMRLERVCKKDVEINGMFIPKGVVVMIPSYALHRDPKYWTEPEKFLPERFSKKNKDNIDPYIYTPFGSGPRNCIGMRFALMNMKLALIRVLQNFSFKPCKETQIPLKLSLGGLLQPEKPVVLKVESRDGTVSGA
Data set [6] can be described thus: Protein binding in rat plasma assessed as unbound fraction. In kind it is ADME, cell-free.
The nature of data set [7]: Protein binding in human plasma assessed as unbound fraction. Format: ADME, cell-free.
A short description of data set [8]: Fraction unbound in rat brain homogenate. In kind it is ADME, tissue-based.
Another data set has as its target Cytochrome P450 2D6 (Homo sapiens, UniProt P10635). Put plainly: Inhibition of CYP2D6 (unknown origin). Format: ADME.
The nature of data set [9]: Volume of distribution at steady state in rat. Format: ADME. Conditions: in vivo.
Data set [10] can be described thus: Hepatic clearance in human. Format: ADME.
The target of data set [11] is Metabotropic glutamate receptor 4 (Rattus norvegicus, UniProt P31423). Put plainly: Positive allosteric modulator activity at rat mGlu4 receptor/Gqi5 in presence of EC20 glutamate by calcium mobilization assay. In kind it is functional.
Metabotropic glutamate receptor 4 (Rattus norvegicus, UniProt P31423), sequence (P31423 whole entry): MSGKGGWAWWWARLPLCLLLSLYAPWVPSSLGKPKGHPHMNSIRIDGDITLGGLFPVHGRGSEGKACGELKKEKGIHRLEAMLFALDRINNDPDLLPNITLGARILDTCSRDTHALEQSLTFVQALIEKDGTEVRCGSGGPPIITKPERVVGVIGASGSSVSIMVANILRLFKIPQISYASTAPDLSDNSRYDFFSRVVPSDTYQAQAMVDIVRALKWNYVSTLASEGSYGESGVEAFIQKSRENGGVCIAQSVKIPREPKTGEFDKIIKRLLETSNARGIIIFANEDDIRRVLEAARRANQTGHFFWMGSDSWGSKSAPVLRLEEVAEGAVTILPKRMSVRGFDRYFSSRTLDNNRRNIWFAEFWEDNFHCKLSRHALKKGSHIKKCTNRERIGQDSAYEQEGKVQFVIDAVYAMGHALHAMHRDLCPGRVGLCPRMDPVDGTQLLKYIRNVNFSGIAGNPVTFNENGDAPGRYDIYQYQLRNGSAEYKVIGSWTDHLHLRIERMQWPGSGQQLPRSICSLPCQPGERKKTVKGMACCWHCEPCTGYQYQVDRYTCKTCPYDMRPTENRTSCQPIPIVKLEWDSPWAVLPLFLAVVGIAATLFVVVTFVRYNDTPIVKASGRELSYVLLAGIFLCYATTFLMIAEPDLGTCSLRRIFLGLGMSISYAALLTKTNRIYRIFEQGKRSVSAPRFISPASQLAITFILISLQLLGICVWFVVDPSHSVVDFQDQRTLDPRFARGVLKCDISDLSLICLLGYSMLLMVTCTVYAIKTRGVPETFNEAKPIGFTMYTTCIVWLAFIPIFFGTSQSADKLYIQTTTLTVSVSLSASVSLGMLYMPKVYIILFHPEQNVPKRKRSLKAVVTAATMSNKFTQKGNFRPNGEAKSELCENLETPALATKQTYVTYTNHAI
Data set [12] addresses Metabotropic glutamate receptor 4 (Rattus norvegicus) (UniProt P31423). Put plainly: Positive allosteric modulator activity at rat mGlu4 receptor/Gqi5 assessed as maximum activity by calcium mobilization assay relative to glutamic acid. Conditions: filed as positive allosteric modulator. In kind it is functional.
A further data set addresses Cytochrome P450 2C19 (Homo sapiens, UniProt P33261). Briefly: Inhibition of CYP2C19 (unknown origin). Format: ADME.
Data set [13] relates to Rattus norvegicus. Briefly: Reversal of haloperidol-induced catalepsy in po dosed rat assessed as minimum effective dose. In kind it is functional. Conditions: read-out: MED.

Results on 34 compounds are retold here after ChEMBL document CHEMBL4665621, “The discovery of VU0652957 (VU2957, Valiglurax): SAR and DMPK challenges en route to an mGlu PAM development candidate” (Bioorg Med Chem Lett, 2019).

Each structure is given as a SMILES string.

T1 sequence (Q14833 whole entry): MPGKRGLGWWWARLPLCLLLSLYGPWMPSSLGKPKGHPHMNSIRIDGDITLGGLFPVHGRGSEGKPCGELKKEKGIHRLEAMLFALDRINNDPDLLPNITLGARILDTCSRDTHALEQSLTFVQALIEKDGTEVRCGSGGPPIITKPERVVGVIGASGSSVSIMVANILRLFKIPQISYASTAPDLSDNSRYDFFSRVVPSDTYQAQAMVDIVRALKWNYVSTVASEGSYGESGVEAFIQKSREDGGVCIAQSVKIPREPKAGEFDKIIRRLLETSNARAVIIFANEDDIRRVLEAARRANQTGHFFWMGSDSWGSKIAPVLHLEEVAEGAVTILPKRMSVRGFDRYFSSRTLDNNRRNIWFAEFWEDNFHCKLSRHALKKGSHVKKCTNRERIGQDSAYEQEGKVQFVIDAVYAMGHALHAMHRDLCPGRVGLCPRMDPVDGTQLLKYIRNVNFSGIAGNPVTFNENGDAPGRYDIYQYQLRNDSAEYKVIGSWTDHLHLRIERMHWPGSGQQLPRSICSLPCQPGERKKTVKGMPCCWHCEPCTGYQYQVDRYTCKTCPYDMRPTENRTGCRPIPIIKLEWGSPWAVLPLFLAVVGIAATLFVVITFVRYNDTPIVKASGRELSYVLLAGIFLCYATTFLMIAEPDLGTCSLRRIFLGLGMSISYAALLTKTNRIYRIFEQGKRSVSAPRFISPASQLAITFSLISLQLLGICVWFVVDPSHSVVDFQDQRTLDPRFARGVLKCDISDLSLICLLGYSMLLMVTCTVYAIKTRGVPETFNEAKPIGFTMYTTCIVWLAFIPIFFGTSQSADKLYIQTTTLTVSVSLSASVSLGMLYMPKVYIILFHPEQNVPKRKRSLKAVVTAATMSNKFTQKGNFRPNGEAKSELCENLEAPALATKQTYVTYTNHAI
Cytochrome P450 2D6, sequence (P10635 whole entry): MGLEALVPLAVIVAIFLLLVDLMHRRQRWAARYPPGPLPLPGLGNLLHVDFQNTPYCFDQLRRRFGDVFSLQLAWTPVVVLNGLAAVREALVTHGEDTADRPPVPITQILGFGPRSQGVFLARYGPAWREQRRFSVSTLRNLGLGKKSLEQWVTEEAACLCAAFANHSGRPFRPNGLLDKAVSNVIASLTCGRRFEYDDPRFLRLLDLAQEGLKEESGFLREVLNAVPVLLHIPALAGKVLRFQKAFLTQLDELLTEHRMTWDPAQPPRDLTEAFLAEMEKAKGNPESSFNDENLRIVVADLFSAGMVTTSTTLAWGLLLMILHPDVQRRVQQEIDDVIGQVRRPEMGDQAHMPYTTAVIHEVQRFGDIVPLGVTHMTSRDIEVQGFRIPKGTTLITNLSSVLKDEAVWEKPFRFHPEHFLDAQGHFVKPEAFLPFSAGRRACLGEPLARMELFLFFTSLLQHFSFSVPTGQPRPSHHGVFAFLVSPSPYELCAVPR
Cytochrome P450 2C19, sequence (P33261 whole entry): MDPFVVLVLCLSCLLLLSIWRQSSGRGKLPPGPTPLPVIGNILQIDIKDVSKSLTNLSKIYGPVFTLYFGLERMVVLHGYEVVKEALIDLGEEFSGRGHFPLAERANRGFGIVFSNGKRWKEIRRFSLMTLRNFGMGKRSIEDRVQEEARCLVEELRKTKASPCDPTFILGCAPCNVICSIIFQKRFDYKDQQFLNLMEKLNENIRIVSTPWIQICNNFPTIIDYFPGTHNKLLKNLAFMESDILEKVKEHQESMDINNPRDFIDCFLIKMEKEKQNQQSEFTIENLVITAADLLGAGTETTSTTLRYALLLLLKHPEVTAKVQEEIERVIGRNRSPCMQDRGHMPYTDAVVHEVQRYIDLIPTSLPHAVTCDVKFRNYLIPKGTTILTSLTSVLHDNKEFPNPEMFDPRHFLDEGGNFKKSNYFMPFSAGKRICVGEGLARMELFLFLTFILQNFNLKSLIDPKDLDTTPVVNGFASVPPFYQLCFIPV
Metabotropic glutamate receptor 4 (Rattus norvegicus), sequence (P31423 whole entry): as the sequence (P31423 whole entry) above

As usually defined, the EC50 is the concentration giving half of the maximal effect. Turning to `Cn1ccc2cc(Nc3n[nH]c4cccnc34)ccc2c1=O`, the EC50 in data set [1] is above 10 µM. The Activity in data set [2] is 30%.
What is called half-life is how long it takes for the measured level to halve. For orientation: Kp means tissue or fluid exposure divided by exposure in the circulation. `FC(F)(F)c1nccc2cc(Nc3n[nH]c4cccnc34)ccc12`: the EC50 in data set [1] was 0.018 µM. Also, the figures for the Activity (in data set [2]; in the data set with Rattus norvegicus [4]) were 77% and 24%, respectively. In addition, in [3], the half-life is below 1 h. Also, the Kp at 0.25 h in data set [5] was determined as 4.3.
On to `c1cnc2c(Nc3ccc4c(N5CCCC5)nccc4c3)n[nH]c2c1`, for which, in data set [1], the EC50 was 1.69 µM. Also, the Activity in data set [2] came to 54%.
What is called IC50 is the point on the concentration scale where inhibition reaches its midpoint. Consider `O=c1[nH]ccc2cc(Nc3n[nH]c4cccnc34)ccc12`, for which the EC50 in [1] was 0.264 µM. Also, the Activity in [2] came out at 77%. In addition, the IC50 is 3.3 µM against Cytochrome P450 1A2, above 30 µM against Cytochrome P450 2C9 and above 30 µM at Cytochrome P450 3A4.
In the case of `c1cnc2c(Nc3ccc4nccnc4c3)n[nH]c2c1`, the EC50 in [1] is above 10 µM.
The same measure, in the same setting: next, `c1cnc2cc(Nc3n[nH]c4cccnc34)ccc2c1`: above 10 µM; `c1cnc2c(Nc3ccc4ccncc4c3)n[nH]c2c1`: above 10 µM.
As for `COCCNc1nccc2cc(Nc3n[nH]c4cccnc34)ccc12`, the EC50 in data set [1] was 0.121 µM. In addition, in data set [2], the Activity amounted to 89%.
On to `Cc1ccn(-c2nccc3cc(Nc4n[nH]c5cccnc45)ccc23)n1`, for which the EC50 in [1] turned out to be 0.237 µM. For the same compound, the Activity in data set [2] came out at 84%.
For the compound `c1cnc2c(Nc3ccc4c(C5CC5)nccc4c3)n[nH]c2c1`, the EC50 in data set [1] turned out to be 0.071 µM. In [2], the Activity was found to be 86%. Also, at Cytochrome P450 1A2, the IC50 is below 1 µM.
With `c1cnc2c(Nc3ccc4c(NC5CCC5)nccc4c3)n[nH]c2c1`, the EC50 in data set [1] turned out to be 0.869 µM. In addition, in data set [2], the Activity turned out to be 71%.
Take `CCN(CC)c1nccc2cc(Nc3n[nH]c4cccnc34)ccc12`: the EC50 in [1] is 0.164 µM. Further, the Activity in [2] was found to be 95%.
For `O=c1c2ccc(Nc3n[nH]c4cccnc34)cc2ccn1CC1CCC1`, in data set [1], the EC50 was 0.653 µM. Moreover, the Activity in [2] came to 31%.
The matching figures for `FC1(F)CCN(c2nccc3cc(Nc4n[nH]c5cccnc45)ccc23)C1`: 0.249 µM and 75%.
With `c1cnc2c(Nc3ccc4cnccc4n3)n[nH]c2c1`, the EC50 in [1] was above 10 µM.
A word on the fraction unbound: it is free concentration divided by total concentration. Usually Vdss stands for the apparent volume that relates the amount in the body to the concentration in plasma or blood. On to `c1cnc2c(Nc3ccc4cnccc4c3)n[nH]c2c1`, for which the EC50 in data set [1] is 0.076 µM. Also, the Activity in [2] was found to be 114%. The fraction unbound in [6] was found to be 0.046. Also, the Fu in data set [7] was 0.092 fraction; in data set [8] it was 0.029%. Besides, the IC50 at Cytochrome P450 1A2 is 0.15 µM; against Cytochrome P450 2C9, 1.35 µM; against Cytochrome P450 2D6, 3.98 µM; on Cytochrome P450 3A4, 0.44 µM. In [3], this compound gave a t1/2 of 10.2 h. In data set [9], this compound displayed a Vdss of 4.88 L/kg.
In the case of `c1cnc2c(Nc3ccc4c(-n5cccn5)nccc4c3)n[nH]c2c1`, the EC50 in data set [1] was 0.063 µM. The Activity in [2] amounted to 85%. Further, the Fu stood at 0.046 fraction in data set [6], 0.09 fraction in data set [7] and 0.029% in data set [8]. Besides, the IC50 at Cytochrome P450 1A2 turned out to be 1.5 µM; at Cytochrome P450 2C9, 7.3 µM; at Cytochrome P450 2D6, 7.2 µM; against Cytochrome P450 3A4, 13 µM. In data set [10], this compound gave a CLH of 35.7 mL/min/kg. In data set [5], this compound yielded a Kp at 0.25 h of 1.37.
As for `CCc1nccc2cc(Nc3n[nH]c4cccnc34)ccc12`, the EC50 in [1] stood at 0.045 µM. Further, the Activity in [2] was 64%. The IC50 on Cytochrome P450 1A2 is below 1 µM.
Consider `Cc1cc(C)n(-c2nccc3cc(Nc4n[nH]c5cccnc45)ccc23)n1`, for which the EC50 in data set [1] amounted to 0.726 µM. For the same compound, the Activity in data set [2] came out at 70%.
For `Cn1nccc1-c1nccc2cc(Nc3n[nH]c4cccnc34)ccc12`, the EC50 in data set [1] stood at 0.045 µM. Also, the Activity in data set [2] was determined as 78%. The Fu came to 0.088 fraction in data set [6] and 0.096 fraction in data set [7]. The CLH in data set [10] turned out to be 11.5 mL/min/kg. This compound yielded a Kp at 0.25 h in data set [5] of 1.6.
With `c1ccc(CNc2nccc3cc(Nc4n[nH]c5cccnc45)ccc23)cc1`, in data set [1], the EC50 was determined as 1.36 µM. In data set [2], the Activity was 58%.
Turning to `c1cnc2ccc(Nc3n[nH]c4cccnc34)cc2c1`, the EC50 in data set [1] is 0.732 µM. The Activity in data set [2] worked out at 42%.
As for `FC(F)(F)c1nccc2cc(Nc3n[nH]c4nccnc34)ccc12`, the EC50 in data set [1] worked out at 0.051 µM. Also, the values for the Activity (in data set [2]; in the data set with Rattus norvegicus [4]) were 83% and 24%, respectively. For the same compound, the half-life in data set [3] was below 1 h.
With `c1cnc2c(Nc3ccc4ncncc4c3)n[nH]c2c1`, the EC50 in data set [1] was above 10 µM.
On to `CC(C)Cn1ccc2cc(Nc3n[nH]c4cccnc34)ccc2c1=O`, for which the EC50 in data set [1] amounted to 0.685 µM. The Activity in data set [2] came to 24%.
In general, Emax refers to the size of the effect at its maximum, as opposed to the concentration needed. Regarding `FC(F)(F)c1nccc2cc(Nc3n[nH]c4ncccc34)ccc12`, the results for the EC50 in data set [1] and in data set [11] were 0.065 µM and 0.197 µM, respectively. Moreover, the Activity was found to be 93% in data set [2] and 50% in the data set on Rattus norvegicus [4]. Moreover, the Kp at 0.25 h in [5] was 1.5. Besides, in data set [12], the Emax was found to be 123%. For the same compound, on Cytochrome P450 2C19, 12.5 µM corresponded to half-maximal inhibition (IC50). For the same compound, in the data set with Rattus norvegicus [13], the minimal effective dose came to 1 mg/kg.
Consider `O=c1c2ccc(Nc3n[nH]c4cccnc34)cc2ccn1C1CCCC1`, for which the EC50 in data set [1] was 1.73 µM. Besides, the Activity in [2] amounted to 22%.
With `CC(c1nccc2cc(Nc3n[nH]c4cccnc34)ccc12)C(F)(F)F` (stereo not given), the EC50 in data set [1] worked out at 0.036 µM. For the same compound, the Activity in data set [2] was 100%. This compound came in with a Kp at 0.25 h in data set [5] of 2.2.
With `CN1CCN(c2nccc3cc(Nc4n[nH]c5cccnc45)ccc23)CC1`, the EC50 in data set [1] turned out to be 1.29 µM. Further, in data set [2], the Activity amounted to 72%.
As to `FC(F)(F)C1CCCCN1c1nccc2cc(Nc3n[nH]c4cccnc34)ccc12` (stereo not given), in data set [1], the EC50 came to 0.306 µM. In data set [2], the Activity was found to be 57%.
Consider `FC(F)c1nccc2cc(Nc3n[nH]c4cccnc34)ccc12`, for which the EC50 in data set [1] came out at 0.008 µM. Besides, the Activity in [2] was 67%; with Rattus norvegicus [4], 45%. For the same compound, the values for the Fu in [6] and in data set [7] were 0.032 fraction and 0.03 fraction, respectively. For the same compound, the concentration for half-maximal inhibition (IC50) against Cytochrome P450 1A2 was 0.3 µM; against Cytochrome P450 2C9, 30 µM; at Cytochrome P450 2D6, above 30 µM; at Cytochrome P450 3A4, above 30 µM. The Kp at 0.25 h in data set [5] is 2.2.
For `Cn1nc(C(F)(F)F)cc1-c1nccc2cc(Nc3n[nH]c4cccnc34)ccc12`, the EC50 in data set [1] amounted to 0.132 µM. Besides, the Activity in data set [2] was found to be 84%.
The matching figures for `c1cnc2c(Nc3ccc4c(N5CCCCC5)nccc4c3)n[nH]c2c1`: 0.215 µM and 74%.
In the case of `c1ccc2cc(Nc3n[nH]c4cccnc34)ccc2c1`, in data set [1], the EC50 was 0.403 µM. Moreover, the Activity in data set [2] stood at 79%.
